Results taken from ChEMBL document CHEMBL5226287, “Small organic molecules targeting the energy metabolism of Mycobacterium tuberculosis” (Eur J Med Chem, 2021).
In brackets after ≈: the same amount, converted by molar mass. Starred links: 1 amine or outer side, 2 acyl side, 3 side chain; linkers in the order of their positions; H or OH if unused. Non-standard residues stand in square brackets, D forms with d. Residues, ends and D or L forms follow the SMILES beside them. ξ: configuration not given here. *: point of attachment. X1 = CCC(=O)C[C@@H](O)C[C@@H](C)C[C@H](N[*:1])C(=O)[*:2]; Alaψ(CH2NMeCH2CH2OH) = C[C@@H](CN(C)CCO)N*; Decanoyl(2R-Me) = CCCCCCCC[C@@H](C)C(=O)*; Ile(3ξ) = CCC(C)[C@H](N)C(=O)O; ξβ3hP = O=C(O)CC1CCCN1; Aib = CC(C)(N)C(=O)O

Legend:
[1] = system: Mycobacterium tuberculosis; assay: Antitubercular activity against Mycobacterium tuberculosis H37Rv infected in THP-1 cells assessed as intracellular bacterial growth measured over 6 days; type: functional; settings: 144 h, time 6 day
[2] = system: Mycobacterium tuberculosis; assay: Antimycobacterial activity against Mycobacterium tuberculosis H37Rv after 14 days; type: functional; settings: 336 h, time 14 day
[3] = system: Mycobacterium tuberculosis; assay: Antibacterial activity against Mycobacterium tuberculosis H37Rv ATCC 27294 assessed as reduction in microbial growth in GAST media; type: functional
[4] = system: Mycobacterium tuberculosis; assay: Antibacterial activity against Mycobacterium tuberculosis H37Rv ATCC 25618 assessed as complete inhibition of bacterial growth measured after 5 days by spectrophotometry method; type: functional; settings: H37Rv ATCC 25618, 120 h, time 5 day
[5] = system: Mycobacterium tuberculosis; assay: Antitubercular activity against Mycobacterium tuberculosis H37Rv incubated for 14 days in GAST/FE medium by Alamar blue assay; type: functional; settings: 336 h, time 14 day
[6] = system: Mycobacterium tuberculosis; assay: Antitubercular activity against Mycobacterium tuberculosis H37Rv assessed as growth inhibition in presence of ATP; type: functional
[7] = Inhibition of Mycobacterium tuberculosis H37Rv ATP synthase
[8] = system: Mycobacterium tuberculosis; assay: Antibacterial activity against Mycobacterium tuberculosis H37Rv in the presence of ATP synthase; type: functional
[9] = Kinetic aqueous solubility of the compound in 2.5% DMSO/PBS at pH 7.4 incubated for 2 hrs by nephelometry analysis; type: physicochemical; settings: PBS with 2.5% DMSO, read-out: Kinetic_solubility
[10] = system: Mycobacterium tuberculosis; assay: Antibacterial activity against Mycobacterium tuberculosis H37Rv-MA ATCC 27294 assessed reduction in bacterial growth by microplate alamar blue assay; type: functional
[11] = system: Mycobacterium tuberculosis; assay: Antibacterial activity against Mycobacterium tuberculosis H37Rv after 7 days by resazurin dye-based assay; type: functional; settings: time 7 day
HepG2 = assay: Cytotoxicity against human HepG2 cells assessed as cell viability at 100 uM by MTT assay; type: functional; settings: read-out: TD50 (the source's name)
[12] = system: Mycolicibacterium smegmatis; assay: Antibacterial activity against Mycobacterium smegmatis assessed as inhibition of bacterial growth in the presence of NADH II dehydrogenase; type: functional, organism-based
[13] = system: Mycobacterium tuberculosis; assay: Antibacterial activity against Mycobacterium tuberculosis H37Rv assessed as reduction bacterial growth after 14 days by micro broth dilution method; type: functional; settings: 336 h, time 14 day
[14] = system: Mycobacterium tuberculosis; assay: Antibacterial activity against Mycobacterium tuberculosis H37Rv in macrophages by CLSI broth microdilution method; type: functional
[15] = Inhibition of Mycobacterium smegmatis ptpB expressed in Escherichia coli […] cells in the presence of ATP cells using 6,8-difluoromethylumbelliferyl phosphate as substrate incubated for 30 mins by fluorescence based assay; parameters: species or system Mycolicibacterium smegmatis
[16] = system: Mycobacterium tuberculosis; assay: Antimycobacterial activity against Mycobacterium tuberculosis H37Rv; type: functional, organism-based
[17] = system: Mycobacterium tuberculosis; assay: Antibacterial activity against Mycobacterium tuberculosis H37Rv assessed as greater inhibition of microbial growth in presence of depletion of ATP levels by microplate alamar blue assay; type: functional, organism-based
[18] = Lipophilicity, log P of the compound at pH 6.5; type: physicochemical; settings: buffer
[19] = system: Mycobacterium tuberculosis; assay: Antibacterial activity against ATP synthesis in Mycobacterium tuberculosis H37Rv derived membrane vesicle incubated for 60 mins by luciferase based assay; type: functional; settings: 1 h
[20] = system: Mycobacterium tuberculosis; assay: Inhibition of ATP synthesis in Mycobacterium tuberculosis H37Rv derived membrane vesicle incubated for 60 mins by luciferase based assay; type: functional; settings: 1 h
[21] = system: Mycobacterium tuberculosis; assay: Antibacterial activity against Mycobacterium tuberculosis H37Rv assessed as reduction in bacterial growth in the presence of resazurin reduction under microplate alamarBlue assay; type: functional
[22] = system: Mycobacterium tuberculosis; assay: Antibacterial activity against Mycobacterium tuberculosis cytochrome bd oxidase assessed as reduction in bacterial growth in the presence of resazurin reduction under microplate alamarBlue assay; type: functional
[23] = system: Mycobacterium tuberculosis; assay: Antibacterial activity against Mycobacterium tuberculosis cytochrome bd oxidase assessed as reduction in bacterial growth in the presence of resazurin reduction under by microdilution method; type: functional
[24] = system: Mycobacterium tuberculosis; assay: Antibacterial activity against Mycobacterium tuberculosis H37Rv assessed as inhibition of bacterial growth by microdilution method; type: functional
[25] = system: Mycobacterium tuberculosis; assay: Antitubercular activity against Mycobacterium tuberculosis H37Rv assessed as inhibition of bacterial growth by fluorescence based analysis; type: functional
[26] = system: Mycobacterium tuberculosis; assay: Antibacterial activity against Mycobacterium tuberculosis H37Rv-LP ATCC 25618 assessed reduction in bacterial growth by microplate alamar blue assay; type: functional
[27] = system: Mycobacterium tuberculosis; assay: Antibacterial activity against Mycobacterium tuberculosis assessed as inhibition of bacterial growth in the presence of NADH II dehydrogenase; type: functional, organism-based
[28] = Inhibition of Mycobacterium tuberculosis TFP incubated for 60 mins by UPLC based assay
[29] = system: Mycobacterium tuberculosis; assay: Antibacterial activity against Mycobacterium tuberculosis H37Rv ATCC assessed as reduction in bacterial growth by microdilution method; type: functional

**Q.** Which MIC [1] does the source give for O=C(/C=C/c1cscn1)N1CCN(Cc2ccc3c(c2)OCO3)CC1 here?
**A.** Its MIC is 0.6 µM (≈ 0.214 µg/mL).

**Q.** What about the MIC [2] of the same compound?
**A.** The MIC was 0.1 µM (≈ 0.0357 µg/mL).

**Q.** With O=C(CSc1nc2ccccc2c(=O)[nH]1)NC1CCC(F)(F)CC1 as the compound, how does the MIC [3] read?
**A.** Its MIC is 0.5 µM.

**Q.** Which MIC99 [4] does the source give for CCc1nc2ccccc2n1CCCCNc1ccccc1 here?
**A.** The MIC99 was 0.47 µM (≈ 0.138 µg/mL).

**Q.** With Cc1ccc(-c2nc3ccc(C)cn3c2CC(=O)N(C)C)cc1 [ZOLPIDEM] as the compound, how does the MIC [5] read?
**A.** Its MIC is 10 µM (≈ 3.07 µg/mL).

**Q.** Which MIC [6] does the source give for O=C(CNC1CCCC1)N(c1ccccc1)c1ccccc1 here?
**A.** The MIC was 6.25 µg/mL.

**Q.** Which MIC99 [4] does the source give for CCc1nc2ccc(C)cc2n1CCCNc1ccc(C)cc1 here?
**A.** Its MIC99 is 0.061 µM (≈ 0.0188 µg/mL).

**Q.** With CN(C)CCN1CCN(c2ccc(-c3cc4cc(Br)ccc4nc3OCc3ccc4ccccc4c3)cc2)CC1 as the compound, how does the IC50 [7] read?
**A.** The IC50 was 38.8 µM.

**Q.** And the MIC [8]?
**A.** Its MIC is 0.44 µg/mL.

**Q.** Which MIC [5] does the source give for CCc1ccn2c(C(=O)NCc3ccc(C)cc3)c(C)nc2c1 here?
**A.** The MIC was 0.004 µM (≈ 0.00123 µg/mL).

**Q.** For O=C(CSc1nc2ccccc2c(=O)[nH]1)NC1CCCCC1, which MIC [3] is on record?
**A.** The MIC was 0.3 µM.

**Q.** And the solubility kinetic at 2 h [9]?
**A.** The solubility kinetic at 2 h was 83 µM (≈ 26.3 µg/mL).

**Q.** With CCc1nc2ccccc2n1CCCCSc1nc(-c2ccccc2)cs1 as the compound, how does the MIC50 [10] read?
**A.** The MIC50 was 5.3 µM (≈ 2.09 µg/mL).

**Q.** For CCNc1nc(SCC)nc2ccccc12, which TD50 [11] is on record?
**A.** The TD50 was 0.09 µg/mL.

**Q.** What about the CC50 (HepG2) of the same compound?
**A.** The CC50 was over 5 µg/mL.

**Q.** For O=C(CSc1nc2cccc(F)c2c(=O)[nH]1)NC1CCC(F)(F)CC1, which IC50 [12] is on record?
**A.** Its IC50 is 0.0107 µM.

**Q.** For O=C(CNC1CCCCC1)N(c1ccccc1)c1ccccc1, which MIC [6] is on record?
**A.** Its MIC is 5.23 µg/mL.

**Q.** Which MIC90 [13] does the source give for COc1ccc(/C=C2/S/C(=N/N=C/c3ccccc3O)NC2=O)cc1 here?
**A.** Its MIC90 is 0.5 µg/mL (≈ 1.41 µM).

**Q.** And the MIC90 [14]?
**A.** The MIC90 was 4 µg/mL (≈ 11.3 µM).

**Q.** What about the IC50 [15] of the same compound?
**A.** The IC50 was 0.312 µM.

**Q.** Which IC50 [16] does the source give for Cc1ccn2c(C(=O)NCc3cccc(OC(C)C)c3)c(C)nc2c1 here?
**A.** Its IC50 is 0.39 µM.

**Q.** For CCCCNc1nc(CC)nc2sc(C)cc12, which IC50 [17] is on record?
**A.** Its IC50 is 0.84 µM.

**Q.** Which IC50 [7] does the source give for CN(C)Cc1ccc(-c2cc3cc(Br)ccc3nc2OCc2ccncc2)cc1 here?
**A.** Its IC50 is 20.3 µM.

**Q.** What about the MIC [8] of the same compound?
**A.** Its MIC is 0.43 µg/mL.

**Q.** Which TD50 [11] does the source give for CCSc1nc(NC)c2ccc(F)c(F)c2n1 here?
**A.** The TD50 was 0.02 µg/mL.

**Q.** With CCCCCCCC[C@@H](C)C(=O)N1CCCC1CC(=O)N[C@@H](C[C@H](C)C[C@H](O)CC(=O)CC)C(=O)NC(C)(C)C(=O)NC(C)(C)C(=O)N[C@H](C(=O)N[C@H](C(=O)NC(C)(C)C(=O)NC(C)(C)C(=O)N[C@@H](C)CN(C)CCO)C(C)C)C(C)CC (stereo partly drawn) ({Decanoyl(2R-Me)}-[ξβ3hP][X1][Aib][Aib][Ile(3ξ)]V[Aib][Aib]-{Alaψ(CH2NMeCH2CH2OH)}) as the compound, how does the logD [18] read?
**A.** Its logD is 4.37.

**Q.** Which results are given for Nc1c2c(nc3sc4c(c13)CCCCC4)CCCC2?
**A.** MIC50 [19]: 1.7 µM (≈ 0.463 µg/mL); IC50 [20]: 3.4 µM

**Q.** With Cc1ccn2c(C(=O)NCc3ccccc3)c(C)nc2c1 as the compound, how does the IC50 [16] read?
**A.** Its IC50 is 0.15 µM.

**Q.** For COc1ccc(CNC(=O)c2c(C)nc3ccc(Br)cn23)cc1, which MIC [21] is on record?
**A.** The MIC was 0.15 µM.

**Q.** What about the MIC [22] of the same compound?
**A.** The MIC was under 0.024 µM.

**Q.** And the MIC [23]?
**A.** Its MIC is under 0.024 µM.

**Q.** What about the MIC [24] of the same compound?
**A.** Its MIC is over 50 µM.

**Q.** For Cc1ccc2nc(C)c(C(=O)NCc3ccc(Cl)nc3)n2c1, which MIC [25] is on record?
**A.** The MIC was 5 µM (≈ 1.57 µg/mL).

**Q.** For CCc1nc2ccc(C)cc2n1CCCCOc1ccccc1, which MIC50 [26] is on record?
**A.** The MIC50 was 0.34 µM (≈ 0.105 µg/mL).

**Q.** Which MIC [25] does the source give for Cc1ccc2nc(C)c(C(=O)NCc3ccc(C(F)(F)F)cc3)n2c1 here?
**A.** The MIC was 0.03 µM (≈ 0.0104 µg/mL).

**Q.** With C=CCN1NC(C(=O)N2CCSCC2)C2CC(NCc3ccc(Cl)s3)CCC21 (stereo not drawn) as the compound, how does the IC50 [27] read?
**A.** Its IC50 is 0.0647 µM.

**Q.** Which IC50 [28] does the source give for O=C(/C=C/c1cccs1)N1CCN(Cc2ccc3c(c2)OCO3)CC1 here?
**A.** Its IC50 is 0.1 µg/mL (≈ 0.281 µM).

**Q.** What about the MIC [1] of the same compound?
**A.** Its MIC is 0.4 µM (≈ 0.143 µg/mL).

**Q.** What about the MIC [2] of the same compound?
**A.** Its MIC is 0.05 µM (≈ 0.0178 µg/mL).

**Q.** With O=C(CSc1nc2ccccc2c(=O)[nH]1)NCC1CCC(F)(F)CC1 as the compound, how does the MIC [3] read?
**A.** The MIC was 0.8 µM.

**Q.** What about the IC90 [29] of the same compound?
**A.** The IC90 was 5.1 µM.

**Q.** What about the solubility kinetic at 2 h [9] of the same compound?
**A.** The solubility kinetic at 2 h was 250 µM (≈ 91.9 µg/mL).
